The text below walks through data of US10562902B2, “IRAK4 inhibitor and use thereof” (BEIJING HANMI PHARMACEUTICAL CO., LTD., priority 2015, dated 2020).

In one assay the target is IRAK4 kinase (Homo sapiens (Human), UniProt Q9NWZ3). Put plainly: IRAK4 kinase activity inhibition assay. It is filed as biochemical. As to conditions: ADP-Glo kinase assay, 10 μM ATP, MBP substrate. A digest of the protocol: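 IRAK4 ([…]) in 40 mM Tris-HCl pH 7.5, 20 mM MgCl2, 0.1 mg/mL BSA and 1 mM DTT was preincubated 10 min at 25 °C with six 10-fold dilutions of compound from 10 μM. ATP (10 μM) and MBP substrate (0.1 μg/μL) were then added and reacted 60 min at 25 °C. ADP formed was read by ADP-Glo luminescence to give IC50.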
IRAK4 kinase, sequence (Q9NWZ3 whole entry): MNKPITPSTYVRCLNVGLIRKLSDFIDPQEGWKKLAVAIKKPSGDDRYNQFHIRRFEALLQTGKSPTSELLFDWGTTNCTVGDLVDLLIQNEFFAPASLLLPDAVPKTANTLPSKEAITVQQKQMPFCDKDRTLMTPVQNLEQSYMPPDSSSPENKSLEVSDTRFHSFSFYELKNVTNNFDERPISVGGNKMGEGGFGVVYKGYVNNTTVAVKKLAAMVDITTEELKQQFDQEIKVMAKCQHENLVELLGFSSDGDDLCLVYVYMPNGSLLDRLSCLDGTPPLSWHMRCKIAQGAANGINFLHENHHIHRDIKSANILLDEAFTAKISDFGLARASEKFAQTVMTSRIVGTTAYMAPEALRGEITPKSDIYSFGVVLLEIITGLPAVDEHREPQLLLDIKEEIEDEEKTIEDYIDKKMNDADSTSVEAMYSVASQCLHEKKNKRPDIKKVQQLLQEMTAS
(In ADP-Glo the light output rises with the ADP produced.)

The subject of assay [1] is LPS-induced TNF-α secretion in THP-1 cells. Put plainly: LPS-induced TNF-α secretion assay in THP-1 cells. It is filed as cell-based. As to conditions: Homo sapiens, 24 hours, TNF-α ELISA. As for the experimental part:
The compound of Example 133 and the compound of Example 134 of the invention were tested in LPS-induced TNF-α secretion assay in THP-1 cells. Human THP-1 cells (purchased from ATCC, Cat. No.: TIB-202) were cultured in RPMI-1640 medium (purchased from Gibco, Cat. No.: 22440) containing 10% fetal bovine serum (purchased from Gibco, Cat. No.: 10099-141) and 0.05 mM of 2-mercaptoethanol (purchased from Gibco, Cat. No.: 21985). The THP-1 cells in logarithmic growth phase were seeded in a 96-well plate at 2×10^5 cells/well/100 μL. The test samples were diluted with RMPI-1640 medium to 4 folds of the final concentration (5-fold dilutions starting from 10 μM, setting 6 drug concentrations, and testing in replicate wells at each concentration). The diluted test samples were added to the test wells seeded with cells at 50 μL/well, and RMPI-1640 medium (50 μL) was separately added to positive control and negative control wells. The 96-well plate was placed in the incubator at 37° C., 5% CO2 and pre-incubated for 2 hours. […] After incubation in the incubator at 37° C., 5% CO2 for 24 hours, the cell culture supernatant was taken and determined for the content of TNF-α in the supernatant using a human TNF-α ELISA kit (purchased from DKW, Cat. No.: 12-1720-096).
A general note: In an ELISA, binding on a coated surface is turned into a signal by an enzyme label.

One may read the IC50 as the concentration at which inhibition is half-maximal. Lower therefore signals inhibition by little substance.

On to `CNC(=O)c1csc(Nc2nc(O[C@H]3CCOC3)c3c(ccn3-c3cnn(C)c3)n2)c1` [Example 133], for which the IC50 was at most 100 nM on IRAK4 kinase and 161 nM in assay [1].
Take `CCNC(=O)c1csc(Nc2nc(O[C@H]3CCOC3)c3c(ccn3-c3cnn(C)c3)n2)c1` [Example 134]: the half-maximal inhibitory concentration (IC50) against IRAK4 kinase is at most 100 nM; in assay [1], 311 nM.
